Measured values: patent EP0535528A1, “Antibacterial 5-Nitro-1-methyl-imidazolyl-3-terbutyl-2-hydroxy-aryl-carbinols” (EURORESEARCH S.r.L., priority 1991, dated 1993)

Assay: Direct mutation test (16 h treatment in the growth step)
Format: cell-based
Procedure: The tests are carried out on the compound EU11100 with or without metabolic activity for a treatment period of 16 h in the growth step. The used concentrations are 0.25-0.50 mg/ml without metabolic activation and 0.075-0.150 mg/ml with metabolic activation.

[1] = section A (without), 0.25 mg/ml
[2] = section A (without), 0.50 mg/ml

COc1cc(C(O)c2ncc([N+](=O)[O-])n2C)c(O)c(C(C)(C)C)c1 (centres unmarked) [EU11100, 5-nitro-1-methyl-imidazolyl-3-terbutyl-2-hydroxy-5-methoxy-phenyl-carbinol]
Frequency of: Mutation [1]: 1.60
Survival (%) [1]: 71.1%
Frequency of: Mutation [2]: 0.00
Survival (%) [2]: 36.4%
Frequency of: Mutation (section B (with), 0.075 mg/ml): 2.11
Survival (%) (section B (with), 0.075 mg/ml): 89.9%
Frequency of: Mutation (section B (with), 0.150 mg/ml): 3.22
Survival (%) (section B (with), 0.150 mg/ml): 29.5%
